Assay results reported in PubChem BioAssay AID2060602 (Molecular Pharmacology Branch, DTP, NCI, 2025).
pIC50: −log10 of the molar value. “And” between values parts separate entries of the source, which are not always exact repeats. Equal entries are not always repeated.

Test system: 648629-189-R-J1-PDC complex spheroids viability
Experiment: Anticancer human tumor 648629-189-R-J1-PDC patient-derived bladder carcinoma cell line growth inhibition [CLK]
Details: for viability, T/C: stronger effect = lower value; for pIC50: curve of compound; for IC50: compound alone
From the text: A high-throughput screen of multi-cell type tumor spheroids was designed to identify active combinations of […] and targeted small molecules. Complex spheroids include a stromal component modeled by human endothelial cells (HUVEC) and fibroblasts modeled by human mesenchymal stem cells (MSCs). The concentration ranges selected for each drug and investigational agent were based upon clinically achievable concentrations if the clinical Cmax of the agent was known.
Compounds. The drugs and investigational agents: cirtuvivint (SM08502; NSC835563), CC-671 (NSC850746), vemurafenib (NSC761431), tapotoclax (NSC804041), sotorasib (NSC818433), adagrasib (NSC831453), MRTX-1133 (NSC836407), BAY2416964 (NSC825713), copanlisib (NSC816437), inavolisib (NSC800729), abemaciclib (NSC768073), osimertinib (NSC779217), entinostat (NSC756642), eltanexor (KPT-8602, NSC794443), venetoclax (NSC766270), ceralasertib (NSC777638), bortezomib (NSC756655), olaparib (NSC753686), talazoparib (NSC767125), alisertib (NSC759677), peposertib (NSC802822), gemcitabine (NSC613327), 5-fluorouracil (NSC19893), SN-38 (NSC673596), oxaliplatin (NSC266046), paclitaxel (NSC125973), and doxorubicin (NSC123127), were obtained from the National Cancer Institute (NCI) Developmental Therapeutics Program Chemical Repository. The FDA-approved anticancer drug set is available from the Developmental Therapeutics Program at https://dtp.cancer.gov/organization/dscb/obtaining/available plates.htm. […] The stock solutions were prepared in dimethyl sulfoxide (DMSO, Sigma-Aldrich, St. Louis, MO, cat. D2650), except for the platinum complexes which were prepared in saline (Quality Biological, Gaithersburg, MD, cat. 114-055-101), at 800-fold the tested concentration and stored at -70 degrees C prior to their use. All drugs and investigational agents were tested over a range starting from a high concentration at or near the clinical Cmax and decreasing in half-log increments. If the clinical Cmax for an agent had not been determined, the highest concentration tested was 10 microM.
Cell Culture. All cells were maintained in an incubator at 37 degrees C and 5% CO2 with 95% humidity. The PDC lines were cultured according to standard operating procedures established by the NCI PDMR. Briefly, all PDCs were thawed and cultured in Matrigel-coated flasks prepared with a working solution of 1X Ham's F-12 nutrient mix, without supplementation (Invitrogen, Waltham, MA, cat. 11765054), 100 U/mL penicillin-streptomycin (Invitrogen, cat. 15140122), and 2.5% Matrigel (Corning Inc., Corning, NY, cat. 354248) for the first three passages. The 947758-054-R-J2-PDC line was cultured in 6B/Colon 1A media, which includes advanced DMEM/F-12 (Thermo Fisher Scientific, cat. 12634028), 10 mM HEPES (Thermo Fisher Scientific, cat. 15630080), 1X GlutaMAX supplement (Thermo Fisher Scientific, cat. 35050061), 0.1 mg/mL primocin (InvivoGen, cat. ant-pm-2), 10% defined fetal bovine serum, heat inactivated (HyClone Laboratories Inc., cat. SH30070.03HI), 1.25 mM N-Acetyl-L-cysteine (Sigma-Aldrich, cat. A9165), 10 mM nicotinamide (Sigma-Aldrich, cat. N0636), 1X B-27 supplement (Thermo Fisher Scientific, cat. 17504044), 1X N-2 supplement (Thermo Fisher Scientific, cat. 17502048), and 10 microM Y-27632 dihydrochloride (Tocris Bioscience, cat. 1254). The 876862-298-R-J1-PDC was cultured in 6E media, which includes all 6B/Colon 1A media components plus 50% L-WRN conditioned media (ATCC, cat. CRL-3276), 50 ng/mL recombinant human EGF recombinant protein (hEGF; Thermo Fisher Scientific, cat. PHG0311), 10 ng/mL recombinant human fibroblast growth factor 10 (hGFG-10; PeproTech, cat. 100-26), 1 ng/mL recombinant human fibroblast growth factor 2 (hFGF-2; PeproTech, cat. 100-18B), and 1 µM prostaglandin E2 (PGE2; Tocris, cat. 2296). The 227483-062-R1-J1-PDC line was cultured in Panc media, containing all 6E components except hFGF-2, with the addition of 500 nM SB-431542 (Selleckchem, cat. S1067) and 10 nM gastrin (Tocris, cat. 3006). […]
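Throughout, for viability, T/C: drug exposure lasted seven days before viability readout; 100% = DMSO vehicle control wells.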

Row | pIC50 | IC50 (run of 07/31/2023) | IC50 (run of 08/01/2023) | Compound | viability, T/C (compound 0.00316 µM) | viability, T/C (compound 0.01 µM) | viability, T/C (compound 0.0316 µM) | viability, T/C (compound 0.1 µM) | viability, T/C (compound 0.316 µM) | viability, T/C (compound 1 µM) | viability, T/C (compound 3.16 µM) | viability, T/C (compound 10 µM) | viability, T/C (compound 0.000316 µM) | viability, T/C (compound 0.001 µM) | viability, T/C (compound 0.00949 µM) | viability, T/C (compound 0.03 µM) | viability, T/C (compound 0.0949 µM) | viability, T/C (compound 0.3 µM) | viability, T/C (compound 0.949 µM) | viability, T/C (compound 3 µM)
1 | > 8.50 | – | – | CCc1c2c(nc3ccc(O)cc13)-c1cc3c(c(=O)n1C2)COC(=O)[C@]3(O)CC | 43.1% and 28.1% | 17.6% and 10.2% | 6.99% and 10.1% | 5.22% and 6.99% | 4.52% and 6.06% | 3.5% and 4.41% | – | – | – | – | – | – | – | – | – | –
2 | – | 286 nM [middle of 11 runs] | – | CN1CCN(c2cc(C(=O)Nc3cc4cc(-c5cnn(C)c5)ccc4cn3)ccn2)CC1 | – | – | 113% [middle of 12 runs] | 105% [middle of 12 runs] | – | 0.38% [middle of 11 runs] | 0.16% [middle of 7 runs] | 0.15% [middle of 7 runs] | – | – | – | – | – | – | – | –
3 | – | – | 209 nM [middle of 10 runs] | CNC(=O)c1ccc(Nc2nc(OC3CCCC3)c3c(-c4ccc5nc(C)oc5c4)c[nH]c3n2)c(OC)c1 | – | – | 108% [middle of 12 runs] | 88.3% [middle of 12 runs] | 28% [middle of 12 runs] | 19.8% [middle of 12 runs] | 19% [middle of 12 runs] | 20% [middle of 12 runs] | – | – | – | – | – | – | – | –
4 | 7.11 and 7.12 | – | – | COc1c(OCCCN2CCOCC2)ccc2c3n(c(=NC(=O)c4cnc(N)nc4)nc12)CCN3 | 115% and 94.4% | 90.3% and 90.5% | 74.8% and 77.7% | 46% and 41.9% | 16.8% and 13.3% | 7.93% and 6.55% | – | – | – | – | – | – | – | – | – | –
5 | < 7.00 | – | – | Cn1ncnc1[C@H]1c2n[nH]c(=O)c3cc(F)cc(c23)N[C@@H]1c1ccc(F)cc1 | 99.2% and 97.4% | 83.2% and 92.6% | 73.8% and 77.2% | 67.4% and 71.5% | – | – | – | – | 106% and 98.8% | 84.9% and 101% | – | – | – | – | – | –
6 | < 5.00 | – | – | O=C(c1cc(Cc2n[nH]c(=O)c3ccccc23)ccc1F)N1CCN(C(=O)C2CC2)CC1 | – | – | 109% and 101% | 90.8% and 97.7% | 92% and 108% | 79.5% and 103% | 75.7% and 84.3% | 57.9% and 71.5% | – | – | – | – | – | – | – | –

The remaining lines, values behind:

Row | Compound | pIC50 | IC50 (run of 07/31/2023) | IC50 (run of 08/01/2023) | viability, T/C (compound 0.00316 µM) | viability, T/C (compound 0.01 µM) | viability, T/C (compound 0.0316 µM) | viability, T/C (compound 0.1 µM) | viability, T/C (compound 0.316 µM) | viability, T/C (compound 1 µM) | viability, T/C (compound 3.16 µM) | viability, T/C (compound 10 µM) | viability, T/C (compound 0.000316 µM) | viability, T/C (compound 0.001 µM) | viability, T/C (compound 0.00949 µM) | viability, T/C (compound 0.03 µM) | viability, T/C (compound 0.0949 µM) | viability, T/C (compound 0.3 µM) | viability, T/C (compound 0.949 µM) | viability, T/C (compound 3 µM)
7 | COC1C=CCC(C)C(C)S(=O)(=O)NC(=O)c2ccc3c(c2)N(CC2CCC21)CC1(CCCc2cc(Cl)ccc21)CO3 (stereo unspecified) | 5.74 and 5.78 | – | – | – | – | 102% and 92.4% | 91% and 85% | 77% and 89.5% | 79% and 77.1% | 25.9% and 15.1% | 2.88% and 3.41% | – | – | – | – | – | – | – | –
8 | NC(=O)C(=Cn1cnc(-c2cc(C(F)(F)F)cc(C(F)(F)F)c2)n1)c1cncnc1 | 7.23 and 7.26 | – | – | – | – | – | – | – | – | – | – | – | – | 102% and 105% | 86.1% and 84.8% | 24.7% and 19.3% | 9.87% and 6.77% | 3.5% and 4.03% | 1.5% and 1.39%
9 | Nc1ccccc1NC(=O)c1ccc(CNC(=O)OCc2cccnc2)cc1 | 5.71 and 5.84 | – | – | – | – | 115% and 88% | 92.5% and 91.6% | 88.5% and 77.7% | 72.7% and 64% | 33% and 24.8% | 4.51% and 3.32% | – | – | – | – | – | – | – | –
10 | Nc1ccn(C2OC(CO)C(O)C2(F)F)c(=O)n1 (stereo unspecified) | > 7.50 | – | – | – | – | 49.6% and 38.5% | 18.4% and 12.3% | 11.4% and 11% | 6.88% and 9.43% | 6.14% and 8.17% | 4.28% and 6.46% | – | – | – | – | – | – | – | –
11 | O=c1[nH]cc(F)c(=O)[nH]1 | 5.88 and 6.20 | – | – | – | – | 101% and 97.3% | 92.7% and 84.2% | 80.1% and 69.3% | 57.8% and 36% | 29.1% and 31.9% | 19.3% and 26.1% | – | – | – | – | – | – | – | –
